Reference: publication PMC12583827, “Harnessing microbial-derived metabolites in the urinary tract to prevent infection induced catheter encrustation” (Nature Communications, 2025)
Counter-ions that a name gives are not always drawn. Like-named read-outs stand apart in the source and are kept apart here. Where a SMILES comes first, the peptide text is derived from it.

How the values were obtained:
P. mirabilis urease [1] = target: T1, P. mirabilis urease (Proteus mirabilis, UniProt P17086); assay type: cell-based; conditions: for Dampens urease activity: biosynthetic pathway/functional group screen; for effect on P. mirabilis urease activity (whole cell): potassium phosphate buffer, dose response
T1 construct: it utilizes whole bacterial cells, rather than isolated enzyme preparations; endogenous in cells; host or cells: Proteus mirabilis HI4320, live whole cells

Jack Bean Urease (JBU) = target: T2, Jack Bean Urease (JBU) (Canavalia ensiformis, UniProt P07374); assay type: biochemical; conditions: 0.1 U JBU, 500 mM urea
T2 construct: purchased Sigma-Aldrich
Method: To measure Jack Bean urease activity, the previously described assay was modified such that 0.1 U (1U liberates 1 µmol of ammonia from urea per minute) of JBU (Sigma-Aldrich urease from Canavalia ensiformis) were distributed into a 96-well plate in place of the bacterial suspensions. Acetohydroxamic acid (AHA), was used as a positive control and a vehicle control was used as a negative control. Percent of maximum urease activity was calculated using Area Under the Curve (AUC) relative to untreated bacteria of interest or untreated JBU. Urease activity measurement in MRSA was adapted from a recently published semi quantitative assay (See Supplementary materials for details)[48].
414 Supplementary Figure 13. Microbial metabolites dampen activity of purified Jack Bean
415 Urease (JBU). 0.1 U of JBU (1U liberates 1 µmol of ammonia from urea per minute) was
416 incubated at 37 °C with shaking in urease-dampening metabolites, 500mM urea, and phenol red.
417 A urea analogue, AHA, served as the positive control for inhibition of JBU. Absorbance
418 (OD562) was measured every 60 seconds for 90 minutes, and activity is expressed as percent of
419 maximum activity (% Max Activity) relative to untreated JBU. Graphs show mean±SD for 3
420 independent experiments with 3 technical replicates each. Data were analyzed by two tailed one
421 sample t-test to a hypothetical value of 100% activity. ***P<0.001, **P<0.002, *P<0.033.
(1 picture or pasted object on this page, not shown here)

[2] = target: T3, urease of P. mirabilis HI4320 cell free extracts (Proteus mirabilis, UniProt P17086); assay type: biochemical
T3 construct: 20ul of cell-free extract were distributed into a 96-well plate in place of the whole cell bacterial suspensions; endogenous in cells; host or cells: Proteus mirabilis HI4320, urea-induced; freeze-thaw and sonication lysate, clarified supernatant
Method: To measure urease activity of the cell free extracts of P. mirabilis, P. mirabilis was cultured for ~18 h in LB broth and then sub cultured until it reached mid-log growth phase (OD600 0.2-0.5). Cultures were spun down to pellet at 10,000 rcf for 10 minutes and resuspended in saline to a final OD600 of 1.0. Cultures were then diluted 1:10 in potassium phosphate buffer pH7 supplemented with 500 mM urea and incubated at 37 °C with shaking for 1 h to induce its urease enzyme production. The isogenic urease mutant Pm ureF::kan (Supplementary Data 1) served as negative control. Cultures then were spun down to pellet at 10,000 rcf for 10 minutes and resuspended in 2 mL saline. Cultures were subjected to four cycles of freezing in liquid nitrogen and thawing in a 37 °C water bath. Cultures were then probe sonicated (on ice) at 25% amplitude for 10 sec. Sonicated cultures were centrifuged at 18,900 Xg for 5 min and supernatants were transferred to a clean tube and stored on ice. To measure urease activity of cell free extracts, the previously described assay was modified such that 20ul of cell-free extract were distributed into a 96-well plate in place of the whole cell bacterial suspensions. Acetohydroxamic acid (AHA), was used as a positive control. Percent of maximum urease activity was calculated using Area Under the Curve (AUC) relative to untreated cell free extracts of P. mirabilis.

[3] = target: T4, urease of P. mirabilis cell free extracts (Proteus mirabilis, UniProt P17086); assay type: biochemical; conditions: for type of urease inhibition: Michaelis-Menten parameters, Lineweaver-Burke plot
T4 construct: 20ul of cell-free extract were distributed into a 96-well plate in place of the whole cell bacterial suspensions; endogenous in cells; host or cells: Proteus mirabilis HI4320, urea-induced; freeze-thaw and sonication lysate, clarified supernatant
Method: For the kinetic analysis of the urease reaction in the presence of urease dampening metabolites, urease activity assays were repeated with the P. mirabilis cell free extracts. Six different inhibitor concentrations that gave linear rates of reaction over a period of 120 min were tested for their effects on urease activity in the presence of urea concentrations ranging from 0 to 500 mM. Simple linear regression was performed on the absorbance (OD562) over 120 minutes for each condition and plotted as Initial velocity (slope) vs urea concentration. These initial hyperbolic plots were converted to double-reciprocal Lineweaver-Burke plots, and the pattern of inhibition inferred from the point of intersection of the lines. Finally, the Ki for a particular compound was determined by plotting the Km/Vmax ratio (the slope of the Lineweaver-Burke plots) of each line as a function of the inhibitor concentration as described by ref. [49]. The X-intercept corresponded to –Ki.

[4] = Buffering capacity assay (NaOH titration, phenol red); assay type: physicochemical; conditions: high concentrations of metabolite in potassium phosphate buffer with phenol red
Method: Known concentrations of sodium hydroxide were added to each well of a 96 well plate in combination with candidate dampening metabolite of interest buffered 1:10 in potassium phosphate buffer pH7. 0.01% phenol red was added to each well, and absorbance (OD562) was measured in a Synergy H1 plate reader (BioTek).

P. mirabilis urease [5] = target: T1, P. mirabilis urease; assay type: cell-based
Method: To assess the synergistic effects of dampening metabolites when used in combination with each other, P. mirabilis urease activity was measured as described above. Between 4-6 different concentrations for each dampening metabolite were tested both alone and in combination (See Fig. 6a for example). […] To account for variability between experiments, all conditions tested were performed on a single 96-well plate with three technical replicates for each condition. To compare between biologic replicates, percent inhibition relative to untreated P. mirabilis was calculated for each condition using the average area under the curve over 120-180 minutes (so that the positive control activity curve saturated without any increase in the negative control curve).
Statistical analysis was conducted using a one sample T test of the combination index compared to a hypothetical value of 1 (additive effect). […] Therefore, combination indexes were calculated using a desired effect size less than 40% were indicated with an * in Fig. 6b and in Supplementary Data 5.

[6] = screen of candidate metabolites, highest concentration tested 20mM, * Trending but not statistically significant
[7] = highest concentration tested 20mM
[8] = highest concentration tested 10mM in 20%DMSO

T1 sequence (P17086 whole entry): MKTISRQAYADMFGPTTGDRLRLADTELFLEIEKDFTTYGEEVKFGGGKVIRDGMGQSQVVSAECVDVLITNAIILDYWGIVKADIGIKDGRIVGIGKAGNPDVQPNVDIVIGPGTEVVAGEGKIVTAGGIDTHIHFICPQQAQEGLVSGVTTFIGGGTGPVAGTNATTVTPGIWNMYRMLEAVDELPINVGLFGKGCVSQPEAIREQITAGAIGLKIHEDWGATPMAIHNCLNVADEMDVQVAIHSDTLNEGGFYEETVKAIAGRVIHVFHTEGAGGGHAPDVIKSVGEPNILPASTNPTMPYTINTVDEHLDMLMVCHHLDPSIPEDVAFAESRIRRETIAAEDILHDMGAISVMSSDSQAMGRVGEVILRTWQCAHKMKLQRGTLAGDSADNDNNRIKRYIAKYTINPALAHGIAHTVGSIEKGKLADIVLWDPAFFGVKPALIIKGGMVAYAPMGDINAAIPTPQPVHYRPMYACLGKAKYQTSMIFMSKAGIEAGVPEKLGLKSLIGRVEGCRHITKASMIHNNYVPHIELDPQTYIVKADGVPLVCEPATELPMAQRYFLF
T1 sequence (P17088 whole entry, further chain): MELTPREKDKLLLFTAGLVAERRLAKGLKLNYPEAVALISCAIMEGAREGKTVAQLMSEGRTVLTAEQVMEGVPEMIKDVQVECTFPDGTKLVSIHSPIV
T1 sequence (P17087 whole entry, further chain): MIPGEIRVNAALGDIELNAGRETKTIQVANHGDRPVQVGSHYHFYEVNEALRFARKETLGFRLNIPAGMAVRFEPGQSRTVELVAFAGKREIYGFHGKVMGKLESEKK
T4 sequence (P17086 whole entry): as the sequence (P17086 whole entry) above
T4 sequence (P17088 whole entry, further chain): as the sequence (P17088 whole entry, further chain) above
T4 sequence (P17087 whole entry, further chain): as the sequence (P17087 whole entry, further chain) above
T2 sequence (P07374 whole entry, looked up): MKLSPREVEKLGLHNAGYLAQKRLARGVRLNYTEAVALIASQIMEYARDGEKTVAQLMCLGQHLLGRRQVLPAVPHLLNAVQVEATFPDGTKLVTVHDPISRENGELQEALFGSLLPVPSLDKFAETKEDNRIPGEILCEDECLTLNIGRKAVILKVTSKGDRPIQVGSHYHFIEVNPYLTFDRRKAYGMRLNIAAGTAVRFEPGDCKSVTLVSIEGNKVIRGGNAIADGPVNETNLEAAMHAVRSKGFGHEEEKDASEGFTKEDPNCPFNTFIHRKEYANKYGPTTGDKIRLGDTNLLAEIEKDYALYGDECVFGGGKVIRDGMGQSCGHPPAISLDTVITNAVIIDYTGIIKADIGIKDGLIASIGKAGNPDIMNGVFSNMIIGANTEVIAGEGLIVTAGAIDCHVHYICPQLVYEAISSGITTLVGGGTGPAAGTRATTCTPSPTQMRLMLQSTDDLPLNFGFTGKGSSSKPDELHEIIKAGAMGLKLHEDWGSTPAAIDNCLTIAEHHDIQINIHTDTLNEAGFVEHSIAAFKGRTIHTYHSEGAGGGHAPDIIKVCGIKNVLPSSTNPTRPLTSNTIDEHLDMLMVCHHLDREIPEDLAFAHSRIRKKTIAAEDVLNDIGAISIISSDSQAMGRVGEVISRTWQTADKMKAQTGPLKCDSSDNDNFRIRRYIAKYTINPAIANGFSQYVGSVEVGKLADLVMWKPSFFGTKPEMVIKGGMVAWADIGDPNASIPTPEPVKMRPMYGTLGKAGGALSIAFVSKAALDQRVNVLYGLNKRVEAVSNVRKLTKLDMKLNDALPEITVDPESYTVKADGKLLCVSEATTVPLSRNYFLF
T3 sequence (P17088 whole entry): as the sequence (P17088 whole entry, further chain) above
T3 sequence (P17086 whole entry): as the sequence (P17086 whole entry) above
T3 sequence (P17087 whole entry, further chain): as the sequence (P17087 whole entry, further chain) above

O=C([O-])CCC(O)C(=O)[O-].[Na+].[Na+] (racemic) [2-hydroxyglutarate, DL-α-Hydroxyglutaric acid disodium salt]
Urease dampening activity (P. mirabilis urease [1]; [6]): No

CCC(C)C(=O)C(=O)[O-].[Na+] (racemic) [3-methyl-2-oxovalerate, (±)-3-Methyl-2-oxovaleric acid sodium salt]
Urease dampening activity (P. mirabilis urease [1]; [6]): No

NC(COP(=O)(O)O)C(=O)O (racemic) [Ophospho-D,L-serine]
Urease dampening activity (P. mirabilis urease [1]; [6]): No

O=C(O)C(O)Cc1ccccc1 (racemic) [Phenyllactate, (+/-)-3-Phenyllactic acid]
Dampens urease activity (P. mirabilis urease [1]; [7]): No

O=Cc1c[nH]c2ccccc12 [3-formylindole, Indole-3-carboxyaldehyde]
Urease dampening activity (P. mirabilis urease [1]; [8]): No

O=C(O)C(=O)c1c[nH]c2ccccc12 [3-indoleglyoxylic acid]
Urease dampening activity (P. mirabilis urease [1]; [8]): No

O=C(O)C(=O)Cc1ccc(O)cc1 [4-hydroxyphenylpyruvate, 4-Hydroxyphenylpyruvic acid]
Urease dampening activity (P. mirabilis urease [1]; highest concentration tested 15mM in 10% ethanol): No

CC(C)CC(=O)C(=O)O [4-methyl-2-oxopentanoate, 4-Methyl-2-oxovaleric acid]
Urease dampening activity (P. mirabilis urease [1]; [6]): No

CC(=O)O [Acetic acid, Acetic Acid, Glacial]
Dampens urease activity (P. mirabilis urease [1]; [7]): No

Cl.Cl.NCCCCCN [Cadaverine dihydrochloride]
Urease dampening activity (P. mirabilis urease [1]; [6]): No

NC(N)=NCCC[C@@H](N)C(=O)O [D-Arginine]
Urease dampening activity (P. mirabilis urease [1]; [6]): No

NCC(=O)O [Glycine]
Dampens urease activity (P. mirabilis urease [1]; [7]): No

NCCc1c[nH]cn1 [Histamine free base]
Urease dampening activity (P. mirabilis urease [1]; [6]): Yes*

O=C(O)C(=O)Cc1cnc[nH]1 [Imidazole pyruvate, Imidazole pyruvic acid hydrobromide hydrate]
Dampens urease activity (P. mirabilis urease [1]; highest concentration tested 5mM): No

N=C(N)NCCC[C@H](N)C(=O)O [L-Arginine]
Urease dampening activity (P. mirabilis urease [1]; [6]): No

N[C@@H](Cc1c[nH]cn1)C(=O)O [L-Histidine]
Dampens urease activity (P. mirabilis urease [1]; [7]): No

C[C@H](O)C(=O)O [L-Lactic acid, L-(+)-Lactic acid]
Dampens urease activity (P. mirabilis urease [1]; [7]): No

CC(=O)NCCCCCN [N-(5-Aminopentyl)acetamide]
Urease dampening activity (P. mirabilis urease [1]; [6]): No

CC[C@H](C)[C@H](NC(C)=O)C(=O)O [N-acetylisoleucine, N-acetyl-L-isoleucine]
Urease dampening activity (P. mirabilis urease [1]; [6]): No

CC(=O)NCCCCN.Cl [N-acetylputrescine, N-Acetylputrescine Hydrochloride]
Urease dampening activity (P. mirabilis urease [1]; [6]): No

N[C@@H](COP(=O)(O)O)C(=O)O [Ophospho-L-serine]
Urease dampening activity (P. mirabilis urease [1]; [6]): No

Nc1ncnc2c1ncn2[C@@H]1O[C@@H]2COP(=O)(O)O[C@H]2[C@H]1O [adenosine 3',5'-cyclic monophosphate (cAMP)]
Urease dampening activity (P. mirabilis urease [1]; [6]): No

Nc1ncnc2c1ncn2C1OC(COP(=O)(O)O)C(O)C1O (stereo not shown) [adenosine 5'-monophosphate (AMP), AMP sodium salt hydrate]
Urease dampening activity (P. mirabilis urease [1]; [6]): No

NCCCCCN [cadaverine, Cadaverine]
Urease dampening activity (P. mirabilis urease [1]; [6]): No

O=C1NC(Cc2ccccc2)C(=O)N2CCCC12 (stereo not shown) [cyclo(phe-pro), Cyclo(Phe-Pro)]
Urease dampening activity (P. mirabilis urease [1]; [6]): No

O=C1N[C@@H](Cc2ccc(O)cc2)C(=O)N2CCC[C@@H]12 [cyclo(pro-tyr), Cyclo(-Pro-Tyr)]
Urease dampening activity (P. mirabilis urease [1]; [6]): No

Nc1ccn([C@@H]2O[C@H](CO)[C@@H](O)[C@H]2O)c(=O)n1 [cytidine, Cytidine]
Urease dampening activity (P. mirabilis urease [1]; [6]): No

O=C([O-])[C@H](O)[C@@H](O)[C@H](O)[C@H](O)CO.[Na+] [gluconate, Gluconic acid Sodium Salt]
Urease dampening activity (P. mirabilis urease [1]; [6]): No

NC(N)=NCCCC[C@H](N)C(=O)O [homoarginine, H-HoArg-OH]
Urease dampening activity (P. mirabilis urease [1]; [6]): No

O=C(O)[C@@H](O)Cc1cnc[nH]1 [imidazole lactate]
effect on P. mirabilis urease activity (whole cell) (P. mirabilis urease [1]): reproducibly decreased

c1c[nH]cn1 [imidazole, Imidazole]
JBU activity (Jack Bean Urease (JBU)): inhibited | urease activity of cell free P. mirabilis extracts [2]: at least partially inhibiting | Dampens urease activity (P. mirabilis urease [1]; [7]): Yes | effect on P. mirabilis urease activity (whole cell) (P. mirabilis urease [1]): additional hits | change of estimated Km on addition of metabolite [3]: increase | change of estimated Vmax on addition of metabolite [3]: decrease | type of urease inhibition [3]: mixed inhibitors | buffering capacity: absorbance (OD562) across NaOH concentrations [4]: consistent reduction in absorbance compared to the control

CC(C)C[C@H](N)C(=O)NCC(=O)O [leucylglycine, L-Leucylglycine hydrate] (H-Leu-Gly-OH)
JBU activity (Jack Bean Urease (JBU)): inhibited | urease activity of cell free P. mirabilis extracts [2]: at least partially inhibiting | effect on P. mirabilis urease activity (whole cell) (P. mirabilis urease [1]): reproducibly decreased | Urease dampening activity (P. mirabilis urease [1]; [6]): Yes | change of estimated Km on addition of metabolite [3]: increase | change of estimated Vmax on addition of metabolite [3]: decrease | type of urease inhibition [3]: mixed inhibitors | concentrations required to achieve a significant combination index (P. mirabilis urease [5]): > 50 mM

NCCc1ccccc1 [phenethylamine, 2-Phenylethylamine]
Urease dampening activity (P. mirabilis urease [1]; [6]): No

N[C@@H](Cc1ccccc1)C(=O)O [phenylalanine, L-phenylalanine]
Urease dampening activity (P. mirabilis urease [1]; [6]): No

NCCCCN [putrescine, Putrescine Dihydrochloride]
Urease dampening activity (P. mirabilis urease [1]; [6]): No

OC[C@H]1O[C@@](CO)(O[C@H]2O[C@H](CO)[C@@H](O)[C@H](O)[C@H]2O)[C@@H](O)[C@@H]1O [sucrose, Sucrose]
Urease dampening activity (P. mirabilis urease [1]; [6]): No

N[C@@H](Cc1ccc(O)cc1)C(=O)O [tyrosine, L-Tyrosine disodium salt dihydrate]
Urease dampening activity (P. mirabilis urease [1]; highest concentration tested 2.5mM): No

O=c1[nH]c(=O)c2nc[nH]c2[nH]1 [xanthine, Xanthine]
Urease dampening activity (P. mirabilis urease [1]; highest concentration tested 400uM): No
